Experiments:
lysosomal α-mannosidase [1] = molecular target: T1, lysosomal α-mannosidase (Homo sapiens, UniProt O00754); test: inhibition of human liver glycosidases: lysosomal α-mannosidase; type: biochemical
T1 construct: from tissue; host or cells: human liver
T1 sequence (O00754 50-601 limits assumed): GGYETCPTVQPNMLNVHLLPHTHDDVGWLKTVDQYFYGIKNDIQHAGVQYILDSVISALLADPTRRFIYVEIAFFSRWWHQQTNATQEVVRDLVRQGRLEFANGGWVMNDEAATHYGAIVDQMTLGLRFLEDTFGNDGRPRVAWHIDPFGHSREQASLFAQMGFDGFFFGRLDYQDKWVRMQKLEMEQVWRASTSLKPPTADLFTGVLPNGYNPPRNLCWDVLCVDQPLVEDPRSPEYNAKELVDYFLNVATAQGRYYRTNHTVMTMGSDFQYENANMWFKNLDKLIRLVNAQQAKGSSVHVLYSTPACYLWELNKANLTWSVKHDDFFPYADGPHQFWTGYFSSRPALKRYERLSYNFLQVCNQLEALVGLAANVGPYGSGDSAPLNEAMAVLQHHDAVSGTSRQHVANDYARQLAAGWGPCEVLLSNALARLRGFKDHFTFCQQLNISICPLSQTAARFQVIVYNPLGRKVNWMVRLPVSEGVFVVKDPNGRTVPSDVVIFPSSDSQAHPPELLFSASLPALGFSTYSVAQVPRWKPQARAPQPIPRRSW
T1 sequence (O00754 602-882 limits assumed): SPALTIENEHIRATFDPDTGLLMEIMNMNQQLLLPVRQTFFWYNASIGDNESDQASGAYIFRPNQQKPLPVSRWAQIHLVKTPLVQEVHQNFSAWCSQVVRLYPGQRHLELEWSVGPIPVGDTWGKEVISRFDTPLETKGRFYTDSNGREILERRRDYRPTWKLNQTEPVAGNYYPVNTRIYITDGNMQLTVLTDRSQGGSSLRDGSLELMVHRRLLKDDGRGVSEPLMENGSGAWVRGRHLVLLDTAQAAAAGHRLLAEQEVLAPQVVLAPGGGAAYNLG
T1 sequence (O00754 883-1011 limits assumed): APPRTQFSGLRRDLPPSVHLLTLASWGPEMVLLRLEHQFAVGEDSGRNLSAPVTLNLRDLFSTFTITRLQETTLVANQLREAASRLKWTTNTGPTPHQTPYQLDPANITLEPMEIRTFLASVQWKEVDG
Text: (§1) The effects of the ring contracted swainsonines (3) and (4) on the inhibition of 14 human liver glycosidases was studied by the assay methods described in Palamarczyk et al., Arch. Biochem. Biophys. 243, 35 (1985); Daniel et al., Glycoconjugate J. 6, 229 (1989) and Cenci di Bello et al., Biochem. J. 259, 855 (1989). […] Chem. Commun.

[2] = system: processing forms of α-mannosidase; conditions: literature; cited from earlier work
lysosomal α-mannosidase [3] = conditions: literature; cited from earlier work
[4] = system: human liver α-mannosidases; test: inhibition of human liver α-mannosidases; type: biochemical
Text: as §1

glycosidases = test: inhibition of glycosidases (general statement); type: biochemical; conditions: compared with swainsonine
[5] = system: broad specificity β-galactosidase/β-glucosidase; test: inhibition of human liver glycosidases: broad specificity β-galactosidase/β-glucosidase; type: biochemical
Text: as §1

amyloglucosidase = conditions: literature (Nash et al.); cited from earlier work
[6] = system: bovine kidney α-fucosidase; test: inhibition of bovine kidney α-fucosidase; type: biochemical
snail β-mannosidase = test: inhibition of snail β-mannosidase; type: biochemical
[7] = system: Golgi II processing mannosidase; test: inhibition of human liver glycosidases: Golgi II mannosidase; type: biochemical; conditions: compared with swainsonine
Text: as §1

yeast α-glucosidase = test: inhibition of yeast α-glucosidase; type: biochemical
Jack bean α-mannosidase = molecular target: T2, Jack bean α-mannosidase (Canavalia ensiformis, UniProt C0HJB3); test: inhibition of Jack bean α-mannosidase; type: biochemical
T2 sequence (C0HJB3 1-981): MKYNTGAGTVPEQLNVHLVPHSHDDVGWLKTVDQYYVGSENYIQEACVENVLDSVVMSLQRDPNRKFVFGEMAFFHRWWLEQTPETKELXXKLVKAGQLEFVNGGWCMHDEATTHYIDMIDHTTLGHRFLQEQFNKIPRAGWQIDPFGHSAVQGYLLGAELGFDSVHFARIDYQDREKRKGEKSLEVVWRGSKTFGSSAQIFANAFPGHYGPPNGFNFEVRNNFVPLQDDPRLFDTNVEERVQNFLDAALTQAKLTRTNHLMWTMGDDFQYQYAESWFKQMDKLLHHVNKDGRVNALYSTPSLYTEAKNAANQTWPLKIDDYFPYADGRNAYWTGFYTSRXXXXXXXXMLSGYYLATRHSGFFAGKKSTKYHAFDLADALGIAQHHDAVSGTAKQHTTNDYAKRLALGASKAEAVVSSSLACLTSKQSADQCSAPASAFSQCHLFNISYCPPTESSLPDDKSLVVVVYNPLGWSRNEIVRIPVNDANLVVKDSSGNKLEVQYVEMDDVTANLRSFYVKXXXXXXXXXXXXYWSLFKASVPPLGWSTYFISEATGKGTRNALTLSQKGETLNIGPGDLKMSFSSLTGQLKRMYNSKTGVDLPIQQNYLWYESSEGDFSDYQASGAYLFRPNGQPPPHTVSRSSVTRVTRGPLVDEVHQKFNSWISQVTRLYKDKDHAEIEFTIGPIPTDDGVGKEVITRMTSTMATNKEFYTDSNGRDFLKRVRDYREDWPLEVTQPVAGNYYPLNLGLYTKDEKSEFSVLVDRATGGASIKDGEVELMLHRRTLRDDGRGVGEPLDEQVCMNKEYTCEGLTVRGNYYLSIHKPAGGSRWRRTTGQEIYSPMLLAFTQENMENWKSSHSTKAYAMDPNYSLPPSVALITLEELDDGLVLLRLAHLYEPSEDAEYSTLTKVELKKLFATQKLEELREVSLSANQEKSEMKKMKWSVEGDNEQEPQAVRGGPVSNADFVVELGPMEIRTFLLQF

[8] = system: Aspergillus niger α-galactosidase; test: inhibition of Aspergillus niger α-galactosidase; type: biochemical
β-galactosidase = test: inhibition of human liver glycosidases: β-galactosidase; type: biochemical; conditions: 1 mM
Text: as §1

[9] = system: neutral processing mannosidase; test: inhibition of human liver glycosidases: neutral processing mannosidase; type: biochemical; conditions: compared with swainsonine
Text: as §1

bovine β-galactosidase = test: inhibition of bovine β-galactosidase; type: biochemical
bovine β-hexosaminidase = test: inhibition of bovine β-hexosaminidase; type: biochemical
[10] = molecular target: green coffee bean α-galactosidase (Coffea arabica, UniProt Q42656); test: inhibition of green coffee bean α-galactosidase; type: biochemical
almond β-glucosidase = test: inhibition of almond β-glucosidase; type: biochemical
α-fucosidase = test: inhibition of human liver glycosidases: α-fucosidase; type: biochemical; conditions: 1 mM
Text: as §1

Chain of green coffee bean α-galactosidase (Q42656 16-378): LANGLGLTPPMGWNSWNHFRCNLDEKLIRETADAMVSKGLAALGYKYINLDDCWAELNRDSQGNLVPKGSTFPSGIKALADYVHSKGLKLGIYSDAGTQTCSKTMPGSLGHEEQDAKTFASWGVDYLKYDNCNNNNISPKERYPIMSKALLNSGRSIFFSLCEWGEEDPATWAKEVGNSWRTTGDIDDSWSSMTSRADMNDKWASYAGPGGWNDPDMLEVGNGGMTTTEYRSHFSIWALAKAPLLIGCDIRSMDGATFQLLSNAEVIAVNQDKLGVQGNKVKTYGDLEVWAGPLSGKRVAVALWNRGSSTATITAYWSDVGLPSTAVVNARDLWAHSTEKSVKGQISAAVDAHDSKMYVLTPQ

SMILES: O[C@H]1[C@H]2[C@H](O)CCCN2C[C@H]1O [Compound 1, (1S,2R,8R,8aR)-1,2,8-Trihydroxyindolizidine]
- Ki (lysosomal α-mannosidase [1]; lysosomal α-mannosidase, comparator): 70 nM
- inhibition of some of the processing forms of α-mannosidase [2]: potent and specific inhibitor
- inhibition of lysosomal α-mannosidase (lysosomal α-mannosidase [3]): potent and specific inhibitor

SMILES: O[C@H]1[C@H]2[C@@H](O)CCN2C[C@H]1O [Compound 4, (1S,2R,7S,7aR)-1,2,7-Trihydroxypyrrolizidine]
- inhibition of human liver α-mannosidases [4]: does not inhibit
- glycosidase inhibitory activity (glycosidases): weaker such activity than swainsonine
- inhibition of broad specificity β-galactosidase/β-glucosidase ([5]; concentration not given): 40%

SMILES: OC[C@@H]1[C@@H](O)[C@@H](O)[C@H]2[C@@H](O)CCN21 [Compound 5, 1,7a-diepialexine]
- amyloglucosidase inhibition (amyloglucosidase): powerful amyloglucosidase inhibitor

SMILES: O[C@H]1[C@H]2[C@H](O)CCN2C[C@H]1O [Compound 3, (1S,2R,7R,7aR)-1,2,7-Trihydroxypyrrolizidine]
- inhibition of bovine kidney α-fucosidase [6]: no significant inhibition
- inhibition of snail β-mannosidase (snail β-mannosidase): no significant inhibition
- inhibition of Golgi II processing mannosidase [7]: less effective
- inhibition of yeast α-glucosidase (yeast α-glucosidase): no significant inhibition
- IC50 (lysosomal α-mannosidase [1]; human liver lysosomal α-mannosidase, read-out: I50): 1.5 mM
- Ki (Jack bean α-mannosidase): 1.7 mM
- inhibition of Aspergillus niger α-galactosidase [8]: no significant inhibition
- inhibition of β-galactosidase (β-galactosidase): 69%
- inhibition of neutral processing mannosidase [9]: less effective
- glycosidase inhibitory activity (glycosidases): weaker such activity than swainsonine
- inhibition of bovine β-galactosidase (bovine β-galactosidase): no significant inhibition
- inhibition of bovine β-hexosaminidase (bovine β-hexosaminidase): no significant inhibition
- inhibition of green coffee bean α-galactosidase [10]: no significant inhibition
- inhibition of almond β-glucosidase (almond β-glucosidase): no significant inhibition
- inhibition of α-fucosidase (α-fucosidase): 33%
- inhibition of broad specificity β-galactosidase/β-glucosidase ([5]; 1 mM): 25%
